The numbers were not newly measured in patent US20260218090A1, “A LOW-TEMPERATURE, CAUSTIC DISHWARE […]” (priority 2023, published 2026), which cites them from elsewhere.

The test system of one data set is B. subtilis spores. To be noted: NaOH 1.0 M (40,000 ppm), cited from earlier work.
The test system of a further data set is A. niger. To be noted: NaOH 0.5 M (20,000 ppm); 4 or 22 °C; detection limit less than 3 organisms/mL; cited from earlier work.
The test system of the next data set is E. coli. To be noted: NaOH 0.01 M (400 ppm); 4 or 22 °C; detection limit less than 3 organisms/mL; cited from earlier work.
A further data set concerns S. aureus. To be noted: NaOH 0.1 M (4,000 ppm); 4 or 22 °C; detection limit less than 3 organisms/mL; cited from earlier work.
In the next data set the test system is C. albicans. To be noted: NaOH 0.5 M (20,000 ppm); 4 or 22 °C; detection limit less than 3 organisms/mL; cited from earlier work.
A further data set relates to P. aeruginosa. The conditions noted are these: NaOH 0.5 M (20,000 ppm); 22 °C; detection limit less than 3 organisms/mL; cited from earlier work.

Like-named read-outs stand apart in the source and are kept apart here.

For the compound `[Na+].[OH-]` [NaOH, sodium hydroxide], the “Time for reduction of the organism below the detection limit” value in the data set with B. subtilis spores (4 °C, detection limit less than 100 organisms/mL) is 8 days; with B. subtilis spores (22 °C, detection limit 10 organisms/mL) it was 2 days; in the data set with A. niger, 1 h; with E. coli, 2 h; in the data set on S. aureus, 1 h; in the data set on C. albicans, 1 h. Besides, in the data set on P. aeruginosa, the “Time for reduction of the organism below the detection limit” value is 1 h.
